Results as given in patent publication US20050142121A1, “System for improving acceptance of tissue grafts made from embryonic stem cells” (priority 2003, published 2005).

Tested on: mouse model for coronary infarction
Test: hES-derived cardiomyocyte transplant in mouse model for coronary infarction, echocardiography
Format: in vivo
Conditions: for cardiac improvement upon grafting with hES derived cardiomyocytes (measured by echocardiography): grafts pre-treated with the agent, animals optionally pre-conditioned with allopurinol and uricase, result in words
Method: Cardiomyocytes were differentiated from human embryonic stem (hES) cells and purified by density gradient centrifugation on Percoll™, according to established methods (WO 03/006950). They were adapted to decrease uric acid production upon engraftment by culturing for 24 hours in standard differentiation medium (containing 20% FBS) to which had been added 50 μg/mL allopurinol, or 0.5 Units/mL human recombinant erythropoietin (EPO). Alternatively, the cells were heat shocked in standard differentiation medium (20% FBS) by incubating at 43° C. for 45 minutes, and then transferring to a 37° C. incubator 24 h prior to harvest.
Recipient mice were prepared to decrease uric acid production by the engrafted cells by daily injection of 800 μg allopurinol and/or 10 μg uricase intramuscularly for each of the 3 days before transplant.
The transplant experiments were performed using a mouse model for coronary infarction in an external research laboratory under a Research Agreement with Geron Corporation. The left anterior descending artery was ligated as follows. Mice were anesthetized in an isoflurane inhalation chamber and received intraperitoneal injection of Ketanest/Xylazine (50 mg/kg). They were then intubated and ventilated for the entire surgical procedure. Rectal temperature was maintained at 37° C. by a thermostatically regulated heating pad. One ligation with a 9.0 silk stitch was performed on the proximal 2 mm portion of the artery.
Using a 25 g needle, 0.25-2×10^6 cells (suspended in differentiation medium without serum) were injected into the demarcated area. Immediately afterwards, a chest tube (16 G Angio-cath) was inserted and the chest was closed in layers. Ventilation was maintained until there was sufficient spontaneous breathing, and extubation followed. The ventricular diameter was measured after three weeks by echocardiography. Fractional shortening ([…])≡[(diameter at diastole minus diameter at systole)÷(diameter at diastole)].

Row | Structure (SMILES) | cardiac improvement upon grafting with hES derived cardiomyocytes (measured by echocardiography) | Fractional shortening at 3 weeks post-treatment (infarcted mice (left anterior descending artery ligation), 0.25-2x10^6 cells injected into infarct area, echocardiography after three weeks)
1 | Oc1ncnc2[nH]ncc12 [allopurinol] | considerably enhanced | 24%
2 | CC(C)Cc1ccc(C(C)C(=O)O)cc1 (stereo not drawn) [ibuprophen] | considerably enhanced | 
